Data from BindingDB's records for patent US20260062387 (Mitsubishi Tanabe Pharma, 2026).

Key:
Test in all cases: SIK1, SIK2, and SIK3 inhibition test
[1] = target: Serine/threonine-protein kinase SIK1 (Homo sapiens, UniProt P57059)
Protocol: (§1) The inhibitory activity of the compound for SIK1, SIK2, and SIK3 enzymes was assayed by measuring the amount of ADP, an enzyme reaction product, with ADP-Glo™ Max Assay (Promega). Enzymes, specifically, GST-tagged SIK1 (Carna Biosciences, Inc.), GST-tagged SIK2 (Carna Biosciences, Inc.), and GST-tagged SIK3 (SignalChem) were prepared in a reaction buffer (15 mM tris-hydrochloric acid buffer (pH 7.5), 0.001% Triton X-100, 0.01% BSA) so that the final concentration would be 20 nM, 3 nM, and 100 nM. Enzyme solutions were thus formed. In a reaction buffer, AMARA Peptide (SignalChem) as a substrate with a final concentration of 200 μM (SIK1, SIK2) or 100 μM (SIK3), ATP (Promega) with a final concentration of 1 mM, and magnesium chloride with a final concentration of 5 mM were prepared. Substrate solutions were thus formed. The enzyme solution, the substrate solution, and a DMSO solution of a concentration of the test compound were mixed together and reacted at room temperature for 2 hours. After the reaction, ADP-Glo™ Reagent (Promega) was added, and the reaction was performed at room temperature for 30 minutes. Subsequently, ADP-Glo™ Max Detection Reagent (Promega) was added, and the reaction was performed at room temperature for 30 minutes. The emission by the luciferase reaction was measured with PHERAstar FSX (BMG LABTECH).

[2] = target: Serine/threonine-protein kinase SIK2 (Homo sapiens, UniProt Q9H0K1)
Protocol: as §1

[3] = target: Serine/threonine-protein kinase SIK3 (Homo sapiens, UniProt Q9Y2K2)
Protocol: as §1

Sequence of Serine/threonine-protein kinase SIK2 (Q9H0K1 whole entry): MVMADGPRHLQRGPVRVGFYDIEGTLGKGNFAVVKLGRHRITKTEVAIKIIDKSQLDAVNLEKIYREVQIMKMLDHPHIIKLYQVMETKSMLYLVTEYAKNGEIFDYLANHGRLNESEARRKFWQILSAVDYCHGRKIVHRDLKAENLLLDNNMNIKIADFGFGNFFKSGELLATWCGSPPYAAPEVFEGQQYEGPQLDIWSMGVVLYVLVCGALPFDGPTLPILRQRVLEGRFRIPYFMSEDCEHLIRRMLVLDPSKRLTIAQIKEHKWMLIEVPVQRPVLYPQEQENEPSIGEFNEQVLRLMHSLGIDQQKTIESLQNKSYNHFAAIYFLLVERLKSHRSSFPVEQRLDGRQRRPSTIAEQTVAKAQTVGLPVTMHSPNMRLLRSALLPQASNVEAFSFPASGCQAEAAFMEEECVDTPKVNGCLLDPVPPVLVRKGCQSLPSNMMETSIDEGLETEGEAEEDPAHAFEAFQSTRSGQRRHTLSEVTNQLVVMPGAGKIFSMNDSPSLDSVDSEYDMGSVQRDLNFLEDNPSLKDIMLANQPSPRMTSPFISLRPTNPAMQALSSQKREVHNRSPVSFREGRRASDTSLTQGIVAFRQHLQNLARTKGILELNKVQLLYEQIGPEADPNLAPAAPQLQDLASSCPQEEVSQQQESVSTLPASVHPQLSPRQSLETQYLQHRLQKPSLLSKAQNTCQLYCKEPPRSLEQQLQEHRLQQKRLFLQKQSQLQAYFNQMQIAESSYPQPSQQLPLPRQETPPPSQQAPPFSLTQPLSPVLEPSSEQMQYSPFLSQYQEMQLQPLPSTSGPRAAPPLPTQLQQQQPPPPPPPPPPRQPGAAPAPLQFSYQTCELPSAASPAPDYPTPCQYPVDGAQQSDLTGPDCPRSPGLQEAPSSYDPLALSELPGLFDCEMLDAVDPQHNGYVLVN
Sequence of Serine/threonine-protein kinase SIK1 (P57059 whole entry): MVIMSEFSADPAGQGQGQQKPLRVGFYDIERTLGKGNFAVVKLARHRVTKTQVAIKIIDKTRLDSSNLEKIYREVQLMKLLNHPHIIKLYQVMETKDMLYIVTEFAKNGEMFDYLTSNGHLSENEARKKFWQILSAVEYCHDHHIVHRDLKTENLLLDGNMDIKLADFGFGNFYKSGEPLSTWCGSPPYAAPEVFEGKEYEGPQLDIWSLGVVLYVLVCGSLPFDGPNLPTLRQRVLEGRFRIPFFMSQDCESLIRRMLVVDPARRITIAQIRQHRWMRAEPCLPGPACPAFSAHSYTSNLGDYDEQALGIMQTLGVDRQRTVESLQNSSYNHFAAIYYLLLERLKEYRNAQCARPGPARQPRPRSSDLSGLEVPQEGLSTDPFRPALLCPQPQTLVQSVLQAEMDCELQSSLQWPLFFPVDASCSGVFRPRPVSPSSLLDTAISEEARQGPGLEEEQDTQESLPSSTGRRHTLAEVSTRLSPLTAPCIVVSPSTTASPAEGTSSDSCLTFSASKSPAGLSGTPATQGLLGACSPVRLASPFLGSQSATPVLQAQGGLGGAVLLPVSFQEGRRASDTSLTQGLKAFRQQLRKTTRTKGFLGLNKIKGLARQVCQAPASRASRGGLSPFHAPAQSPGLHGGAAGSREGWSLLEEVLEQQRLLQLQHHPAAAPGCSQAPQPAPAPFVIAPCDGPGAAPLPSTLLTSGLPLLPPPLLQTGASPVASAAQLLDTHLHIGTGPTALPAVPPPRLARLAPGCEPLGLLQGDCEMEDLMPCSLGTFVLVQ
Sequence of Serine/threonine-protein kinase SIK3 (Q9Y2K2 whole entry): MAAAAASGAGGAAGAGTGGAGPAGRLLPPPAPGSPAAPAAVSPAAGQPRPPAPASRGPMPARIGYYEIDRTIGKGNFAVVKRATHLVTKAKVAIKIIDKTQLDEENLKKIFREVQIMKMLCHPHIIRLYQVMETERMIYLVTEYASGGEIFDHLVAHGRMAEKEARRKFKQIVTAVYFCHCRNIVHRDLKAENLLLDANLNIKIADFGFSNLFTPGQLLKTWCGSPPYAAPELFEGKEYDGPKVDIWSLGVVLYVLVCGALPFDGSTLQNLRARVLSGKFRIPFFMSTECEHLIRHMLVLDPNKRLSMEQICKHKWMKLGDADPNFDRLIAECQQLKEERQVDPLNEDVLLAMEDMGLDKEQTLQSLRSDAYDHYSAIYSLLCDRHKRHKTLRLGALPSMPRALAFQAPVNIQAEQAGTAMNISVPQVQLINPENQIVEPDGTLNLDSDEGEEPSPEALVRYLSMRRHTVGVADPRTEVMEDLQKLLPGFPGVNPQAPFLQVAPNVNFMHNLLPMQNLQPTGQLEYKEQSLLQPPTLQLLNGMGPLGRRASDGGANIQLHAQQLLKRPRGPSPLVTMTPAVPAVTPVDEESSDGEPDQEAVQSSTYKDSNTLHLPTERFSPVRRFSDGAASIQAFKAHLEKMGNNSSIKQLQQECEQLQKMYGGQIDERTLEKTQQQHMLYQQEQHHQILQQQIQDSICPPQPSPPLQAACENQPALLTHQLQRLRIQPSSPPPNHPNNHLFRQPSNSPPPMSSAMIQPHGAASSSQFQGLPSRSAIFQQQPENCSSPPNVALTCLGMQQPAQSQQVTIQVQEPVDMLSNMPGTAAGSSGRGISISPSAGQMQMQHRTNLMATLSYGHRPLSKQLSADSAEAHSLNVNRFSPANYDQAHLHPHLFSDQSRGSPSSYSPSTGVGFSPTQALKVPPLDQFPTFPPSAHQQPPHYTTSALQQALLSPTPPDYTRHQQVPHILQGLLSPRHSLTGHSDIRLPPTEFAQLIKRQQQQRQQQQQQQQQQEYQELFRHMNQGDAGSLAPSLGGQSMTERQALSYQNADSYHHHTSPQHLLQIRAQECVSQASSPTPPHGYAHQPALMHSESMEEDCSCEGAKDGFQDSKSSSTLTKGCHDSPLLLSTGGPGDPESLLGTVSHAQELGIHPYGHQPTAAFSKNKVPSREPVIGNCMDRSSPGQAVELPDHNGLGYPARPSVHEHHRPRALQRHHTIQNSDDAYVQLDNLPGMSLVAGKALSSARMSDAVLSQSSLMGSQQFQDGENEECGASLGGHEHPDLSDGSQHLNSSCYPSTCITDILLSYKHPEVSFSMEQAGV

SMILES | IC50 [1] | IC50 [2] | IC50 [3]
COc1cc(-c2c3c(OC(F)F)cc(-c4cnn(C)c4)cc3nn2C)cc(OC(F)F)c1C(=O)N1CC(O)(C(F)(F)F)C1 [US20260062387, Example 62] | 7.9 nM | 3.9 nM | 10.4 nM
COc1cc(-c2c3c(OC(F)F)cc(-c4cn(C)nn4)cc3nn2C)cc(OC(F)F)c1C(=O)N1CC(O)(C(F)F)C1 [US20260062387, Example 64] |  | 9 nM | 15.8 nM
COc1cc(-c2c3c(C(F)F)cc(-c4cnn(CCC(=O)N(C)C)c4)cc3nn2C)cc(OC(F)F)c1C(=O)N1CC(O)(C(F)(F)F)C1 [US20260062387, Example 65] | 9.6 nM | 5.6 nM | 3 nM
COc1cc(-c2c3c(C(F)F)cc(-c4cnn(C[C@@H](C)O)c4)cc3nn2C)cc(OC(F)F)c1C(=O)N1CC(O)(C(F)(F)F)C1 [US20260062387, Example 71] | 3 nM | 6.1 nM | 6.8 nM
COc1cc(-c2c3c(C(F)F)cc(-c4cnn(C[C@H](C)O)c4)cc3nn2C)cc(OC(F)F)c1C(=O)N1CC(O)(C(F)(F)F)C1 [US20260062387, Example 72] | 3.9 nM | 5.6 nM | 
